Measured values from publication PMC12027554, “Inhibition of ABCG2 by SCO-101 Enhances Chemotherapy Efficacy in Cancer” (International Journal of Molecular Sciences, 2025).

Tests used:
HT29PAR cells [1] = test: Cell viability assay (MTT / CCK-8), drug-sensitive HT29; format: cell-based, human
Protocol: (§1) Cells were seeded at a density of 0.2–1 × 10^4 cells/well into 96-well plates. One day after seeding, treatments were performed in triplicate for 72 h, or as otherwise indicated in the relevant panel/figure legend and kept at 37 °C/5% CO2. Growth medium alone (“untreated” cells) or DMSO was used as a control.
(§2) For MTT assays, media were replaced at the final timepoint with 100 μL of 1:10 MTT reagent (0.5 mg/mL in PBS) diluted in growth medium, and plates were incubated for 3 h. A total of 100 μL/well of stop buffer (50 g Sodium Dodecyl Sulfate, 245 mL ddH2O, 5 mL 1N HCl) was added and plates incubated for 24 h to let colored formazan crystals develop. Optical densities (ODs) were measured with a PowerWave^TM Microplate spectrophotometer (BioTek, Winooski, VT, USA) at 570 nm and 670 nm (background).
(§3) For CCK-8 assays, 100 μL of 1:10 CCK-8 reagent (pevonedistat-treated HT29 cells) diluted in medium was added to each well and cells incubated for 1–2 h at 37 °C. OD values were measured at 450 nm with a VersaMax microplate spectrophotometer (Molecular Devices, San Jose, CA, USA).
(§4) Background values were subtracted prior to further analysis. The percentage of cell viability was expressed as relative values versus untreated cells as determined by the various assays. EC50/IC50 values were calculated using GraphPad Prism (v10.4.1) and the in-built non-linear regression [log (inhibitor) vs. response—variable slope (four parameters)] calculation. For determination of synergy scores, the online tool SynergyFinder+ (https://synergyfinder.org access date 15 February 2025) was employed following 4 × 4- or 6 × 6-matrix dose-escalation cell viability experiments. Doses of drugs are indicated in the relevant figure legends and ranges have been chosen based on the response of cells to single-drug dose-dependent experiments. Synergy scores were calculated using the ZIP model, which takes the advantages of both the Loewe additivity and the Bliss independence models, aiming at a systematic assessment of various types of drug interaction patterns that may arise in a high-throughput drug combination screening.

HT29SN-38 cells [2] = test: Cell viability assay (MTT / CCK-8), SN-38-resistant HT29; format: cell-based, human
Protocol: as §1, §2, §3, §4

HL-60ABCG2 cells = test: Cell viability assay, ABCG2-expressing HL-60; format: cell-based; details: Homo sapiens, 96 h
Protocol: as §1, §4

HL-60PAR cells = test: Cell viability assay, HL-60 parental; format: cell-based; details: Homo sapiens, 96 h
Protocol: as §1, §4

HT29SN-38 cells [3] = test: Cellular dye efflux assay (Hoechst 33342), resistant cells; format: cell-based, human; details: SCO-101 20 µM, Ko-143 1 µM, PSC833 1 µM
Protocol: (§5) Twenty-four hours before the experiments, cells were seeded into 96-well Nunclon^TM plates at a density of 6000 (HT29), 7000 (PANC-1) or 8000 (LoVo) cells/well. The following day, cells were treated in triplicate with the relevant drugs at the indicated concentrations for 1 h. Next, 5 μg/mL Hoechst 33342 was added to the wells, and plates incubated at 37 °C for 30 min^−1 h. Cells were washed with cold PBS, treatments re-added and plates re-incubated at 37 °C for 30 min to 1 h. Plates were analyzed using a Celigo® (Nexcelom Bioscience, Lawrence, MA, USA) imaging cytometer. Data are expressed as percentages of fluorescence intensity, calculated through the following formula: % fluorescence intensity=Mean fluorescence intensity of sample/Mean fluorescence intensity of parental control×100
(§6) Fluorescent images were captured with an Olympus® IX71/TH4-200 microscope equipped with an Olympus® DP72 camera (Shinjuku, Tokyo, Japan), and cells were seeded at a 1.5 × 10^5 cells/well density and treated as described above.

HT29PAR cells [4] = test: Cellular dye efflux assay (Hoechst 33342), parental cells; format: cell-based, human; details: SCO-101 20 µM, Ko-143 1 µM
Protocol: as §5, §6

HT29SN-38 cells [5] = test: 3H-SN-38 uptake in cell monolayers; format: cell-based, human; details: HT29SN-38 monolayers; for cellular accumulation of 3H-SN-38: SCO-101 25 µM, Ko-143 0.5 µM, ZSQ 0.5 µM, vs control (HBSS)
Protocol: Cells were seeded at a density of 1.8 × 10^4 cells/well in 96-well plates and sub-cultured for 48 h. Drugs were dissolved in HBSS transport buffer (HBSS, 0.05% BSA, 10 mM HEPES, pH 7.4) at different concentrations. All treatments were investigated in technical triplicates. On the day of the experiments, the culture medium was exchanged with 100 μL transport buffer and cells incubated for 15 min at 37 °C. Next, the blank transport buffer was exchanged with 50 μL transport buffer containing the different compounds (2X of final concentrations) and incubated for an additional 15 min at 37 °C. The uptake experiment was started by adding 50 μL of 2 μCi/mL ^3H-SN38 and stopped after 15 min of incubation at 37 °C by removing the transport buffer from all wells. Cell monolayers were washed twice by adding/removing ice-cold transport buffer and lysed for 15 min at RT in 100 μL 0.1% TritonX-100. Cell lysates were transferred to scintillation vials containing 2 mL of scintillation fluid (Ultima Gold, PerkinElmer). Each well was washed with 100 μL purified water (milliQ), which was also transferred to respective scintillation vials. The radioactivity in each scintillation vial was measured by means of scintillation counting (Tri-Carb 2910 TR, PerkinElmer, Waltham, MA, USA).

## CC[C@@]1(O)C(=O)OCc2c1cc1n(c2=O)Cc2cc3c(CN(C)C)c(O)ccc3nc2-1 [topotecan]
HT29PAR cells [1]; Homo sapiens, HT-29, 72 h
  IC50: 60 nM
HT29SN-38 cells [2]; Homo sapiens, HT-29, 72 h
  IC50: 1360 nM
HL-60ABCG2 cells
  IC50: > 1000 nM

## O=C1c2c(O)ccc(O)c2C(=O)c2c(NCCNCCO)ccc(NCCNCCO)c21 [mitoxantrone]
HL-60PAR cells
  IC50: 40 nM
HL-60ABCG2 cells
  IC50: 580 nM

## NS(=O)(=O)OC[C@@H]1C[C@@H](n2ccc3c(N[C@H]4CCc5ccccc54)ncnc32)C[C@@H]1O [pevonedistat]
HT29PAR cells [1]; Homo sapiens, HT-29, 72 h
  IC50: 130 nM
HT29SN-38 cells [2]; Homo sapiens, HT-29, 72 h
  IC50: 3230 nM
HL-60PAR cells
  IC50: 5.4 nM
HL-60ABCG2 cells
  IC50: > 1000 nM

## CCc1c2c(nc3ccc(O)cc13)-c1cc3c(c(=O)n1C2)COC(=O)[C@]3(O)CC [SN-38, reference compound]
HT29PAR cells [1]; 72 h
  IC50: 160 nM
HT29SN-38 cells [2]; 72 h
  IC50: 7290 nM
HT29SN-38 cells [2]; SCO-101 15 μM or SN-38 0.5 μM alone, washout 48 h or 120 h
  cell viability after 24 h single treatment and drug washout: did not affect cell viability

## C/C=C/C[C@@H](C)C(=O)[C@H]1C(=O)N[C@@H](C(C)C)C(=O)N(C)CC(=O)N(C)[C@@H](CC(C)C)C(=O)N[C@@H](C(C)C)C(=O)N(C)[C@@H](CC(C)C)C(=O)N[C@@H](C)C(=O)N[C@H](C)C(=O)N(C)[C@@H](CC(C)C)C(=O)N(C)[C@@H](CC(C)C)C(=O)N(C)[C@@H](C(C)C)C(=O)N1C [PSC833]
HT29SN-38 cells [3]
  H33342 dye accumulation: No change

## COc1ccc2c3c([nH]c2c1)[C@H](CC(C)C)N1C(=O)[C@H](CCC(=O)OC(C)(C)C)NC(=O)[C@@H]1C3 [Ko-143]
HT29SN-38 cells [3]
  H33342 dye accumulation: restored
HT29PAR cells [4]
  H33342 dye accumulation: No change
HT29SN-38 cells [5]
  cellular accumulation of 3H-SN-38: increased
HT29SN-38 cells [5]; read-out: EC50, 3H-SN-38 uptake (regarded as IC50 of ABCG2 inhibition)
  EC50: 70 nM

## O[C@@H](COc1cccc2ncccc12)CN1CCN([C@@H]2c3ccccc3[C@@H]3[C@H](c4ccccc42)C3(F)F)CC1 [ZSQ]
HT29SN-38 cells [5]
  cellular accumulation of 3H-SN-38: did not alter
